Data on 8 compounds can be found in ChEMBL document CHEMBL4007427, “Inhibition of the Aldehyde Dehydrogenase 1/2 Family by Psoralen and Coumarin Derivatives” (J Med Chem, 2017).

A word on the AC50: it is the concentration giving half of the maximal activity seen. One may read the Ki as a measure of affinity in units of concentration, obtained from inhibition or displacement. A lower Ki goes with tighter binding. The term IC50 denotes the concentration needed to halve the response being measured. Higher therefore signals a need for much substance.

The target of assay [1] is T1, Retinaldehyde dehydrogenase 3 (Homo sapiens) (UniProt P47895).
T1 sequence (whole entry): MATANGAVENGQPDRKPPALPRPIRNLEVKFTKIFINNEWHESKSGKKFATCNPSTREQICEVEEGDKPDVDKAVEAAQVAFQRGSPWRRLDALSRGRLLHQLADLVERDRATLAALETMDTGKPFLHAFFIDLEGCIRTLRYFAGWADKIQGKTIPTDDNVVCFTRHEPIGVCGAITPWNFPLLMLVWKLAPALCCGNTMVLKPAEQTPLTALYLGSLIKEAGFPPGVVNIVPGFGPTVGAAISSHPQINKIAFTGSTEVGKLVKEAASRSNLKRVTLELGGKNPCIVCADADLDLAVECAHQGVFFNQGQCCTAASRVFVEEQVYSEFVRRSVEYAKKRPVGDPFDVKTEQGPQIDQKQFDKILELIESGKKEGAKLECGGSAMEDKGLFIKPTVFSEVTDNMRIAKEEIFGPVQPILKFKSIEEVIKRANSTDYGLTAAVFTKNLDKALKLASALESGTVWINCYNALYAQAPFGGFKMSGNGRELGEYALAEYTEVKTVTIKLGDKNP
The assay is described as follows: Activation of full length recombinant human ALDH1A3 expressed in Escherichia coli BL21(DE3) preincubated for 2 mins followed by addition of propionaldehyde as substrate in presence of NAD+ by spectrophotometric method relative to control.

Assay [2] addresses T2, Retinaldehyde dehydrogenase 3 (Homo sapiens, UniProt P47895).
T2 sequence (P47895 whole entry): T1 sequence (whole entry)
Description: Activation of full length recombinant human ALDH1A3 expressed in Escherichia coli BL21(DE3) preincubated for 2 mins followed by addition of propionaldehyde as substrate in presence of NAD+ by spectrophotometric method.

Assay [3] has as its target T3, Aldehyde dehydrogenase, mitochondrial (Homo sapiens, UniProt P05091).
T3 sequence (P05091 whole entry): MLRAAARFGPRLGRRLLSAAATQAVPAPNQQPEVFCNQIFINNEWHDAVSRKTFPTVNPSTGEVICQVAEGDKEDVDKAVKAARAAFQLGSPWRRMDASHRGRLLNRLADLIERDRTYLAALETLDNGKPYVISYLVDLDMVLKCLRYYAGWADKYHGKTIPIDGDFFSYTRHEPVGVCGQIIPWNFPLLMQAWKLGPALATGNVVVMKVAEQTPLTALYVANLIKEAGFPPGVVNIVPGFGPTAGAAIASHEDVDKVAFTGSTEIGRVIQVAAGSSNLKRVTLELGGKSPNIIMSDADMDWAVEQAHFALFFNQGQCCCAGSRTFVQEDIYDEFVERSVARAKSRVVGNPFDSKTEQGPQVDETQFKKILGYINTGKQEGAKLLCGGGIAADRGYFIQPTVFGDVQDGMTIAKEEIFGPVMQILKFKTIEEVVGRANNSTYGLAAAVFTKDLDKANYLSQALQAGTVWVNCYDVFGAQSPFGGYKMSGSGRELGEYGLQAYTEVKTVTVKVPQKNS
Description: Competitive inhibition of full length recombinant human ALDH2 expressed in Escherichia coli assessed as reduction in dehydrogenase activity using propionaldehyde as substrate in presence of varying levels NAD+ by Lineweaver-Burk plot analysis

For assay [4], the target named is T4, Aldehyde dehydrogenase X, mitochondrial (Homo sapiens, UniProt P30837).
T4 sequence (P30837 whole entry): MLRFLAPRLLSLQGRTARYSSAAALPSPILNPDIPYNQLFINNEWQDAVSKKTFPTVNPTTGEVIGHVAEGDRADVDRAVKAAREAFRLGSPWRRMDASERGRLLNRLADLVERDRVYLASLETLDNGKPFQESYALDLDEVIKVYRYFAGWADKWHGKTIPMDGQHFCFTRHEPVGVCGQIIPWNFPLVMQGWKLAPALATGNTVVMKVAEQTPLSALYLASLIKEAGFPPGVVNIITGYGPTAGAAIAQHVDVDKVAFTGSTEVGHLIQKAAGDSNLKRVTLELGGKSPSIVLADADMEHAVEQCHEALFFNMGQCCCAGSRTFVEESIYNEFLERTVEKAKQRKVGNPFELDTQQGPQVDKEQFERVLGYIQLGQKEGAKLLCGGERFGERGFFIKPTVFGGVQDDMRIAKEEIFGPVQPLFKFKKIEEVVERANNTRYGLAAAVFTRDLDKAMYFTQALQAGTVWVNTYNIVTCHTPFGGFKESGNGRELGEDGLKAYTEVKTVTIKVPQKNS
Description: Inhibition of full length recombinant human ALDH1B1 expressed in Escherichia coli TunerDE3 assessed as reduction in dehydrogenase activity by measuring NAD(P)H level preincubated for 2 mins followed by addition of propionaldehyde as substrate in presence of NAD+ by spectrophotometric method

A further assay addresses T5, Retinal dehydrogenase 2 (Homo sapiens, UniProt O94788).
T5 sequence (O94788 whole entry): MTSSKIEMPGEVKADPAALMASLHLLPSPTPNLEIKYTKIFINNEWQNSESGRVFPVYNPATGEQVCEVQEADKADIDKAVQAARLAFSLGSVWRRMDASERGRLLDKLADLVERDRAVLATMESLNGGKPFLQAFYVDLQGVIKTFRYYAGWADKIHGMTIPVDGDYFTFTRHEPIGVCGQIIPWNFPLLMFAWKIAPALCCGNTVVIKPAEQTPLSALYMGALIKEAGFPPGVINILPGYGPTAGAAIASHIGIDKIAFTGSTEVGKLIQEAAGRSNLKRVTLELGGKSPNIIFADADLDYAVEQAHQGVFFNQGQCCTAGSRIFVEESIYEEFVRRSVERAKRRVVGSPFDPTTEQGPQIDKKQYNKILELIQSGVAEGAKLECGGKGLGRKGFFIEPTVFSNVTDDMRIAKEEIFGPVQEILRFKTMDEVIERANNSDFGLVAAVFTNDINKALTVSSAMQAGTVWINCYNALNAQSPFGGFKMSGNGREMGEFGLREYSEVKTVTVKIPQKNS

The target of assay [5] is T6, Aldehyde dehydrogenase 1A1 (Homo sapiens, UniProt P00352).
T6 sequence (P00352 whole entry): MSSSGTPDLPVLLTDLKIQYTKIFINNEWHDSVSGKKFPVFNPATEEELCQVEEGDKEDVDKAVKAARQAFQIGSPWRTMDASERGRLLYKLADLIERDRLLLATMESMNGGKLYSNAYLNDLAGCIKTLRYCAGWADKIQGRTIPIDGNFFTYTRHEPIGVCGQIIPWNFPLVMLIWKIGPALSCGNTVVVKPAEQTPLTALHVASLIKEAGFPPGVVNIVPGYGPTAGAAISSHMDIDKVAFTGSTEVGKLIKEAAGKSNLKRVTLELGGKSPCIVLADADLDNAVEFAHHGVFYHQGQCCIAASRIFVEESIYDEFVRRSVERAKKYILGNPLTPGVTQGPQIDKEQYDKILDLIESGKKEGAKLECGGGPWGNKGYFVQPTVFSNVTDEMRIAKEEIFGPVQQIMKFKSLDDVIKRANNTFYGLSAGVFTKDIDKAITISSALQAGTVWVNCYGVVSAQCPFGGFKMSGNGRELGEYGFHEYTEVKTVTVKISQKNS
Description: Inhibition of full length recombinant human ALDH1A1 expressed in Escherichia coli BL21(DE3) assessed as reduction in dehydrogenase activity by measuring NAD(P)H level preincubated for 2 mins followed by addition of propionaldehyde as substrate in presence of NAD+ by spectrophotometric method

Assay [6] concerns the target T1, Retinaldehyde dehydrogenase 3 (Homo sapiens). Description: Inhibition of full length recombinant human ALDH1A3 expressed in Escherichia coli BL21(DE3) assessed as reduction in dehydrogenase activity by measuring NAD(P)H level preincubated for 2 mins followed by addition of propionaldehyde as substrate in presence of NAD+ by spectrophotometric method relative to control.

For assay [7], the target named is T2, Retinaldehyde dehydrogenase 3.

Description for Retinal dehydrogenase 2: Inhibition of full length recombinant human ALDH1A2 expressed in Escherichia coli BL21(DE3) assessed as reduction in dehydrogenase activity by measuring NAD(P)H level preincubated for 2 mins followed by addition of propionaldehyde as substrate in presence of NAD+ by spectrophotometric method

`C/C(=N\O)c1cc2cc(Br)ccc2oc1=O`: the %max in assay [1] is 200%. Moreover, the concentration at half-maximal activity (AC50) in assay [2] turned out to be 35000 nM. Also, the Ki in assay [3] is 2400 nM. For the same compound, the 50% inhibitory concentration (IC50) entry (in assay [4]; at Retinal dehydrogenase 2) was “Not Active” in each case.

In assay [5], `Cc1oc2cc3oc(=O)c(CCC(=O)N4CCCCC4)c(C)c3cc2c1C` yielded an IC50 of 130 nM. Moreover, in assay [3], the inhibition constant Ki stood at 1100 nM.

Turning to `Cc1oc2cc3oc(=O)c4c(c3cc2c1C)CCC4`, in assay [6], the Imax was 50 to 60%. Besides, the 50% inhibitory concentration (IC50) in assay [5] was 170 nM.

Regarding `CCCc1c(C)c2cc3c(C)coc3cc2oc1=O`, inhibition in assay [5] was half-maximal at 340 nM (IC50).

`COC(=O)C(C)Oc1ccc2c(C)cc(=O)oc2c1` (stereo not given) registered a Ki in assay [3] of 310 nM. For the same compound, the IC50 result (in assay [4]; against Retinal dehydrogenase 2; in assay [7]) was “Not Active” each time.

The compound `CCCc1c(C)c2cc3c(C)c(C)oc3cc2oc1=O` came in with an IC50 in assay [5] of 220 nM. Besides, in assay [3], the affinity corresponds to a Ki of 19 nM.

Regarding `CCCc1cc(=O)oc2cc3oc(C)c(C)c3cc12`, in assay [1], the %max is 200%. In assay [2], the half-maximal activity concentration (AC50) was found to be 870 nM.

Turning to `Cc1oc2cc3oc(=O)c4c(c3cc2c1C)CCCC4`, the half-maximal inhibitory concentration (IC50) is 130 nM in assay [5] and “Not Active” in assay [7].
